# In patent US8912121B2, “Herbicidal compositions comprising 4-amino-3-chloro-5-fluoro-6-(4-chloro-2-fluoro-3-methoxyphenyl)pyridine-2-carboxylic acid or a derivative thereof and certain PS II inhibitors” (Dow Agrosciences LLC, priority 2012, dated 2014):
# Experiments:
# Assay in all cases: Pre-emergence soil-applied mixtures, greenhouse
# [1] = tested on: ABUTH (Abutilon theophrasti, velvetleaf); format: in vivo, Abutilon theophrasti Medik.
# Text: (§1) Seeds or nutlets of the desired test plant species were planted in a soil matrix prepared by mixing a loam soil (32 percent silt, 23 percent clay, and 45 percent sand, with a pH of about 6.5 and an organic matter content of about 1.9 percent) and calcareous grit in an 80 to 20 ratio. The soil matrix was contained in plastic pots with a volume of 1 quart and a surface area of 83.6 square centimeters (cm^2).
# (§2) Treatments consisted of the benzyl ester of 4-amino-3-chloro-5-fluoro-6-(4-chloro-2-fluoro-3-methoxy-phenyl)pyridine-2-carboxylic acid (compound A) formulated as an SC (suspension concentrate) and various herbicidal components alone and in combination. Forms of compound A were applied on an acid equivalent basis.
# (§3) Other herbicidal components were applied on an acid equivalent or active ingredient basis and included the PSII-inhibiting herbicides, atrazine formulated as Atrazine® 90WDG, metribuzin formulated as Metribuzin 75DF, simazine formulated as Princep Caliber 90, tebuthiuron formulated as Spike 80DF, cyanazine (technical grade material), hexazinone (technical grade material), linuron (technical grade material), terbuthylazine (technical grade material), and diuron formulated as Diuron 4L.
# (§4) Treatment requirements were calculated based upon the rates being tested, the concentration of active ingredient or acid equivalent in the formulation, and a 12 mL application volume at a rate of 187 L/ha.
# (§5) For treatments comprised of formulated compounds, measured amounts of compounds were placed individually in 25 mL glass vials and diluted in a volume of 1.25% (v/v) Agri-Dex® crop oil concentrate (COC) to obtain 12× stock solutions. […] Application solutions were prepared by adding an appropriate amount of each stock solution (e.g., 1 mL) and diluted to the appropriate final concentrations with the addition of 10 mL of an aqueous mixture of 1.25% (v/v) COC so that the final spray solutions contained 1.25% (v/v) COC.
# (§6) For treatments comprised of technical compounds, weighed amounts can be placed individually in 25 mL glass vials and dissolved in a volume of 97:3 (v/v) acetone/DMSO to obtain 12× stock solutions. […] Application solutions can be prepared by adding an appropriate amount of each stock solution (e.g., 1 mL) and diluted to the appropriate final concentrations with the addition of 10 mL of an aqueous mixture of 1.5% (v/v) COC so that the final spray solutions contain 1.25% (v/v) COC. When technical materials are used, the concentrated stock solutions can be added to the spray solutions so that the final acetone and DMSO concentrations of the application solutions are 16.2% and 0.5%, respectively.
# For treatments comprised of formulated and technical compounds, weighed amounts of the technical materials can be placed individually in 25 mL glass vials and dissolved in a volume of 97:3 (v/v) acetone/DMSO to obtain 12× stock solutions, and measured amounts of the formulated compounds can be placed individually in 25 mL glass vials and diluted in a volume of 1.5% (v/v) COC or water to obtain 12× stock solutions. […] Application solutions can be prepared by adding an appropriate amount of each stock solution (e.g., 1 mL) and diluted to the appropriate final concentrations with the addition of an appropriate amount of an aqueous mixture of 1.5% (v/v) COC so that the final spray solutions contain 1.25% (v/v) COC. […]
# [2] = tested on: BRAPP (Brachiaria platyphylla, broadleaf signalgrass); format: in vivo, Brachiaria platyphylla (Groseb.) Nash; conditions: 28 DAA
# Text: as §1, §2, §3, §4, §5, §6
# (§7) For treatments comprised of formulated and technical compounds, weighed amounts of the technical materials can be placed individually in 25 mL glass vials and dissolved in a volume of 97:3 (v/v) acetone/DMSO to obtain 12× stock solutions, and measured amounts of the formulated compounds can be placed individually in 25 mL glass vials and diluted in a volume of 1.5% (v/v) COC or water to obtain 12× stock solutions. […] Application solutions can be prepared by adding an appropriate amount of each stock solution (e.g., 1 mL) and diluted to the appropriate final concentrations with the addition of an appropriate amount of an aqueous mixture of 1.5% (v/v) COC so that the final spray solutions contain 1.25% (v/v) COC. As required, additional water and/or 97:3 (v/v) acetone/DMSO can be added to individual application solutions so that the final acetone and DMSO concentrations of the application solutions being compared are 8.1% and 0.25%, respectively.
# (§8) All stock solutions and applications solutions were visually inspected for compound compatibility prior to application. Spray solutions were applied to the soil with an overhead Mandel track sprayer equipped with a 8002E nozzles calibrated to deliver 187 L/ha over an application area of 0.503 m^2 at a spray height of 18 inches (46 cm) above average pot height. […]
# [3] = tested on: SETFA (Setaria faberi, giant foxtail); format: in vivo, Setaria faberi Herrm.; conditions: Diuron 280 g ai/ha; 29 DAA
# Text: as §1, §2, §3, §4, §5, §6, §7, §8
# [4] = tested on: ECHCO (Echinochloa colonum, junglerice); format: in vivo, Echinochloa colonum (L.) Link; conditions: Diuron 280 g ai/ha
# Text: as §1, §2, §3, §4
# (§9) For treatments comprised of formulated compounds, measured amounts of compounds were placed individually in 25 mL glass vials and diluted in a volume of 1.25% (v/v) Agri-Dex® crop oil concentrate (COC) to obtain 12× stock solutions. […]
# (§10) For treatments comprised of formulated and technical compounds, weighed amounts of the technical materials can be placed individually in 25 mL glass vials and dissolved in a volume of 97:3 (v/v) acetone/DMSO to obtain 12× stock solutions, and measured amounts of the formulated compounds can be placed individually in 25 mL glass vials and diluted in a volume of 1.5% (v/v) COC or water to obtain 12× stock solutions. […]
# [5] = tested on: ECHCG (Echinochloa crus-galli, barnyardgrass); format: in vivo, Echinochloa crus-galli (L.) P. Beauv.
# Text: as §1, §2, §3, §4, §5
# For treatments comprised of technical compounds, weighed amounts can be placed individually in 25 mL glass vials and dissolved in a volume of 97:3 (v/v) acetone/DMSO to obtain 12× stock solutions. […]
# as §10
# [6] = tested on: SETVI (Setaria viridis, green foxtail); format: in vivo, Setaria viridis (L.) Beauv.; conditions: Diuron 280 g ai/ha
# Text: as §1, §2, §3, §4, §9, §10
smiles,measurement,setting,value
"CN(C)C(=O)Nc1ccc(Cl)c(Cl)c1 [Diuron, N′-(3,4-dichlorophenyl)-N,N-dimethylurea, reference compound]",Visual Weed Control (%)-29 DAA ABUTH Obs,[1]; Diuron 280 g ai/ha,30%
same,Visual Weed Control (%)-29 DAA ABUTH Obs,[1]; Diuron 560 g ai/ha,70%
same,Visual Weed Control (%)-29 DAA ABUTH Obs,[1]; Diuron 1120 g ai/ha,90%
same,Visual Weed Control (%)-28 DAA BRAPP Obs,[2]; Diuron 280 g ai/ha,0%
same,Visual Weed Control (%)-28 DAA BRAPP Obs,[2]; Diuron 560 g ai/ha,35%
same,Visual Weed Control (%)-29 DAA SETFA Obs,[3],5%
same,Visual Weed Control (%)-29 DAA ECHCO Obs,[4],15%
same,Visual Weed Control (%)-28 DAA ECHCG Obs,[5]; Diuron 280 g ai/ha,25%
same,Visual Weed Control (%)-28 DAA ECHCG Obs,[5]; Diuron 560 g ai/ha,65%
same,Visual Weed Control (%)-29 DAA SETVI Obs,[6],0%
